We go through 25 compounds from the ASAP Discovery antiviral challenge data (2025).

≈ marks a conversion by molar mass, not a printed value. Where “and” joins values, the source holds several entries; their conditions need not be identical. Equal values may be shown once.

Assay in data set [1]: not given
This is another data set of the same source.

The conditions of data set [2]: mdck_mdr1.

What is called solubility (kinetic) is solubility judged after dilution from a stock solution rather than from solid. One may read the logD as the decadic logarithm of the distribution of all forms, ionised or not, between an organic phase and buffer at a given pH. Higher therefore signals a more lipophilic compound. Broadly, the Papp is the rate of passage across a membrane or cell layer, normalised by area and donor concentration. Lower therefore signals slow passage. In turn, `OCC#C[C@H](Nc1ccc2c(c1)CNC2)c1cc(Cl)cc2[nH]ncc12` (racemic) gave a solubility (kinetic) of 135 µM (≈ 47.6 µg/mL). Moreover, the log distribution coefficient (logD) in data set [1] was found to be 0.5. Further, the Papp in data set [2] came out at 0.592 ×10⁻⁶ cm/s.

For the compound `CC(C)[C@H](Nc1ncnc2[nH]c(-c3cnn(C)c3C#N)cc12)c1ccc2c(n1)OCCO2` (single isomer, unassigned), the solubility (kinetic) is 53 µM and 50 µM. In addition, in data set [1], the logD was 3.7 and 3.9. The apparent permeability (Papp) in data set [2] is 13.7 ×10⁻⁶ cm/s and 14.6 ×10⁻⁶ cm/s.

`O=C1Cc2cc(C(=O)Nc3ccc4c(c3)CNC4)ccc2N1` had a solubility (kinetic) of 136 µM (≈ 39.9 µg/mL). The compound further registered a Papp in data set [2] of 0.873 ×10⁻⁶ cm/s.

The compound `N#CCCNC(=O)[C@H](Nc1ccc2c(c1)CNC2)c1cc(Cl)cc(C2CC2)c1` (racemic) showed a solubility (kinetic) of 374 µM (≈ 148 µg/mL). Besides, the logD in data set [1] amounted to 0.6. In data set [2], this compound gave a Papp of 0.5 ×10⁻⁶ cm/s.

`CO[C@H]1C[C@H](n2ncc3c(C(=O)Nc4ccc5c(c4)CNC5)cc(Cl)cc32)C1`: the kinetic solubility is 340 µM (≈ 135 µg/mL). In data set [1], the pH-dependent lipophilicity (logD) is 1.5. The same compound returned a Papp in data set [2] of 1.6 ×10⁻⁶ cm/s.

`O=C(NCC(F)F)[C@H](Nc1cnc2c(c1)CNC2)c1cc(Cl)cc(C2CC2)c1` (racemic) returned a solubility (kinetic) of 362 µM (≈ 147 µg/mL). In addition, in data set [1], the pH-dependent lipophilicity (logD) is 1.5. In data set [2], this compound came in with an apparent permeability (Papp) of 0.8 ×10⁻⁶ cm/s.

With `O=C(Nc1cc(Cl)cc(C(=O)Nc2cccc(C3CCNCC3)c2)c1)OCc1ccccc1`, the kinetic solubility is 126 µM (≈ 58.5 µg/mL). The apparent permeability (Papp) in data set [2] was determined as 1.8 ×10⁻⁶ cm/s.

Compound `O=C(Nc1ccc2c(c1)CNC2)c1cc(Cl)cc2c1CCC2` showed a solubility (kinetic) of 335 µM (≈ 105 µg/mL). In data set [1], the logD came out at 1.8. This compound also showed a Papp in data set [2] of 2.57 ×10⁻⁶ cm/s.

`Cn1ncc2c(C(=O)Nc3ccc4c(c3)CNC4)cc(Br)cc21` yielded a solubility (kinetic) of 392 µM (≈ 146 µg/mL). The pH-dependent lipophilicity (logD) in data set [1] worked out at 1. For the same compound, in data set [2], the Papp was 4.66 ×10⁻⁶ cm/s.

For the compound `O=C(NCC(F)F)[C@H](Nc1ccc2c(c1)CNC2)c1cc(Cl)cc2c1CCC2` (racemic), the logD in data set [1] came to 1.2. For the same compound, in data set [2], the Papp was 0.9 ×10⁻⁶ cm/s.

For `CC(C)[C@H](Nc1ncnc2[nH]c(-c3cnn(CC(=O)N(C)C)c3)cc12)c1ccc2c(c1)S(=O)(=O)CCC2` (single isomer, unassigned), the solubility (kinetic) was 361 µM and 256 µM. In data set [1], this compound returned a pH-dependent lipophilicity (logD) of 2.2. The apparent permeability (Papp) in data set [2] was 1.17 ×10⁻⁶ cm/s and 0.555 ×10⁻⁶ cm/s.

`O=C(NCC(F)F)[C@H](Nc1cc2c(cc1Br)CNC2)c1cc(Cl)cc(C2CC2)c1` (racemic) registered a solubility (kinetic) of 333 µM (≈ 161 µg/mL). In data set [1], this compound returned a pH-dependent lipophilicity (logD) of 2.9. In data set [2], this compound yielded an apparent permeability coefficient (Papp) of 0.2 ×10⁻⁶ cm/s.

On to `CNC(=O)[C@H](Nc1cccc(-c2nn[nH]n2)c1)c1cc(Cl)cc2[nH]ncc12` (racemic), for which the solubility (kinetic) turned out to be 347 µM (≈ 133 µg/mL). Moreover, the logD in data set [1] turned out to be 0.3. The Papp in data set [2] stood at 0.863 ×10⁻⁶ cm/s.

As to `O=C(O)Cn1ncc2cc(-c3cc(Cl)cc(NC(=O)OCc4ccccc4)c3)ccc21`, the kinetic solubility was 131 µM (≈ 57.1 µg/mL). The pH-dependent lipophilicity (logD) in data set [1] amounted to 2.6. This compound also registered an apparent permeability coefficient (Papp) in data set [2] of 5.12 ×10⁻⁶ cm/s.

As to `Clc1ccc2[nH]cc(Cc3ccc(-c4nn[nH]n4)cc3)c2c1`, the log distribution coefficient (logD) in data set [1] amounted to 2.1. In addition, in data set [2], the apparent permeability (Papp) was 8.4 ×10⁻⁶ cm/s.

Consider `O=C(NCCCF)[C@H](Nc1ccc2c(c1)CNC2)c1cc(Cl)cc(C2CC2)c1` (racemic), for which the solubility (kinetic) was determined as 394 µM (≈ 158 µg/mL). The compound further had a logD in data set [1] of 1.2. For the same compound, the Papp in data set [2] was 0.7 ×10⁻⁶ cm/s.

The compound `O=C(Nc1cc(Cl)cc(-c2ccc3[nH]c(C(=O)O)cc3c2)c1)OCc1ccccc1` registered a kinetic solubility of 356 µM (≈ 150 µg/mL). Besides, the logD in data set [1] came out at 3.7. In data set [2], the Papp was 0.61 ×10⁻⁶ cm/s.

`CNC(=O)[C@H](Nc1cc(CN)cc(-c2nn[nH]n2)c1)c1cc(Cl)cc(C2CC2)c1` (racemic) had a solubility (kinetic) of 352 µM (≈ 145 µg/mL). The compound also displayed a logD in data set [1] of 1.5. The same compound had an apparent permeability coefficient (Papp) in data set [2] of 0.302 ×10⁻⁶ cm/s.

Turning to `O=C(NCC(F)F)[C@H](Nc1ccc2c(c1)CNC2)c1cc(Cl)cc(C2CC2)c1` (single isomer, unassigned), the solubility (kinetic) is 326 µM and 139 µM. Further, the log distribution coefficient (logD) in data set [1] is 1.3 and 1.4. Further, the Papp in data set [2] is 1.3 ×10⁻⁶ cm/s and 1.9 ×10⁻⁶ cm/s.

In data set [1], `NCc1cc(Cl)cc(C(=O)Nc2ccc3c(c2)CNC3)c1` came in with a pH-dependent lipophilicity (logD) of 2.

With `CCCCNC(=O)[C@H](Nc1ccc2c(c1)CNC2)c1cc(Cl)cc(C2CC2)c1` (racemic), the solubility (kinetic) turned out to be 379 µM (≈ 151 µg/mL). In data set [1], this compound had a logD of 2.3. Besides, in data set [2], the apparent permeability (Papp) was determined as 0.7 ×10⁻⁶ cm/s.

Regarding `Cc1ccc(NC(=O)c2cc(Cl)cc(NC(=O)OCc3ccccc3)c2)cc1CN`, the Papp in data set [2] turned out to be 0.0873 ×10⁻⁶ cm/s.

With `O=C(Nc1cc(Cl)cc([C@H](Nc2cccc(-c3nn[nH]n3)c2)C(=O)NCc2ccccc2)c1)OCc1ccccc1` (racemic), the logD in data set [1] was 3.7. Further, in data set [2], the apparent permeability (Papp) came to 0.6 ×10⁻⁶ cm/s.

Turning to `COc1cc(C#N)cc([C@H](Nc2ccc3c(c2)CNC3)C(=O)NCC(F)F)c1` (racemic), the kinetic solubility is 381 µM (≈ 147 µg/mL). Besides, the pH-dependent lipophilicity (logD) in data set [1] was -0.4. The compound also had a Papp in data set [2] of 0.5 ×10⁻⁶ cm/s.

As to `NCc1cccc(NC(=O)c2cccn3cc(CN4CCCC4)nc23)c1`, the solubility (kinetic) is 332 µM (≈ 116 µg/mL). In data set [1], this compound registered a log distribution coefficient (logD) of 0.2. For the same compound, in data set [2], the apparent permeability (Papp) is 5.25 ×10⁻⁶ cm/s.
